According to ChEMBL document CHEMBL1909294, “Translating clinical findings into knowledge in drug safety evaluation--drug induced liver injury prediction system (DILIps)” (PLoS Comput Biol, 2011):

How the values were obtained:
[1] = test system: Hepatotoxicity;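 on HepSE bilirubinemia: bilirubinemia hepatic side effect score drawn from the DILIps training data, a prediction system for drug-induced liver injury; call rule not given here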;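 on HepSE cholecystitis: Cholecystitis-related hepatic side effect score drawn from the DILIps (drug-induced liver injury prediction) training data set; call rule not given here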;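 on HepSE cholelithiasis: hepatic side effect score for cholelithiasis, drawn from the DILIps training data for predicting drug-induced liver injury; call rule not given here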;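 on HepSE cirrhosis: cirrhosis hepatic side effect score taken from the DILIps (drug-induced liver injury prediction) training set; call rule not given here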;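 on HepSE elevated liver function tests: hepatic side effect score for raised liver function tests, as recorded in the DILIps training set used for predicting drug-induced liver injury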; on HepSE hepatic failure: call rule not given here;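 on HepSE hepatomegaly: hepatic side effect score for hepatomegaly, taken from the training set of the DILIps drug-induced liver injury prediction system; call rule not given here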
[2] = test system: Hepatotoxicity; remark: listed apart in the source;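 on HepSE bilirubinemia: bilirubinemia hepatic side effect score drawn from the DILIps training data, a prediction system for drug-induced liver injury; call rule not given here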;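 on HepSE cholecystitis: Cholecystitis-related hepatic side effect score drawn from the DILIps (drug-induced liver injury prediction) training data set; call rule not given here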;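 on HepSE cholelithiasis: hepatic side effect score for cholelithiasis, drawn from the DILIps training data for predicting drug-induced liver injury; call rule not given here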;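 on HepSE cirrhosis: cirrhosis hepatic side effect score taken from the DILIps (drug-induced liver injury prediction) training set; call rule not given here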;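 on HepSE elevated liver function tests: hepatic side effect score for raised liver function tests, as recorded in the DILIps training set used for predicting drug-induced liver injury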; on HepSE hepatic failure: call rule not given here;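 on HepSE hepatomegaly: hepatic side effect score for hepatomegaly, taken from the training set of the DILIps drug-induced liver injury prediction system; call rule not given here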
[3] = test system: Hepatotoxicity; remark: listed apart in the source;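 on HepSE bilirubinemia: bilirubinemia hepatic side effect score drawn from the DILIps training data, a prediction system for drug-induced liver injury; call rule not given here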;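 on HepSE cholecystitis: Cholecystitis-related hepatic side effect score drawn from the DILIps (drug-induced liver injury prediction) training data set; call rule not given here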;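 on HepSE cholelithiasis: hepatic side effect score for cholelithiasis, drawn from the DILIps training data for predicting drug-induced liver injury; call rule not given here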;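 on HepSE cirrhosis: cirrhosis hepatic side effect score taken from the DILIps (drug-induced liver injury prediction) training set; call rule not given here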;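 on HepSE elevated liver function tests: hepatic side effect score for raised liver function tests, as recorded in the DILIps training set used for predicting drug-induced liver injury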; on HepSE hepatic failure: call rule not given here
[4] = test system: Hepatotoxicity; remark: listed apart in the source;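 on HepSE bilirubinemia: bilirubinemia hepatic side effect score drawn from the DILIps training data, a prediction system for drug-induced liver injury; call rule not given here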;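 on HepSE cholecystitis: Cholecystitis-related hepatic side effect score drawn from the DILIps (drug-induced liver injury prediction) training data set; call rule not given here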;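 on HepSE cholelithiasis: hepatic side effect score for cholelithiasis, drawn from the DILIps training data for predicting drug-induced liver injury; call rule not given here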;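 on HepSE cirrhosis: cirrhosis hepatic side effect score taken from the DILIps (drug-induced liver injury prediction) training set; call rule not given here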;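 on HepSE elevated liver function tests: hepatic side effect score for raised liver function tests, as recorded in the DILIps training set used for predicting drug-induced liver injury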; on HepSE hepatic failure: call rule not given here
[5] = test system: Hepatotoxicity; remark: listed apart in the source; on HepSE hepatic failure: call rule not given here
[6] = test system: Hepatotoxicity; remark: listed apart in the source; on HepSE hepatic failure: call rule not given here
[7] = test system: Hepatotoxicity; remark: listed apart in the source
[8] = test system: Hepatotoxicity; remark: listed apart in the source
[9] = test system: Hepatotoxicity; remark: listed apart in the source
[10] = test system: Hepatotoxicity; remark: listed apart in the source
[11] = test system: Hepatotoxicity; remark: listed apart in the source
[12] = test system: Hepatotoxicity; remark: listed apart in the source
[13] = test system: Hepatotoxicity; remark: listed apart in the source
[14] = test system: Hepatotoxicity; remark: listed apart in the source

Row | SMILES | HepSE_bilirubinemia [1] | HepSE_cholecystitis [2] | HepSE_cholelithiasis [3] | HepSE_cirrhosis [4] | HepSE_elevated liver function tests [5] | HepSE_hepatic failure [6] | HepSE_hepatic necrosis [7] | HepSE_hepatitis [8] | HepSE_hepatomegaly [9] | HepSE_jaundice [10] | HepSE_liver disease [11] | HepSE_liver fatty [12] | HepSE_liver function tests abnormal [13] | HepSE_Combined Scores [14] | also measured
1 | CO/N=C(\C(=O)N[C@@H]1C(=O)N2C(C(=O)[O-])=C(C[N+]3(C)CCCC3)CS[C@H]12)c1csc(N)n1 | 0 | 0 | 0 | 0 | 0 | 1 | 0 | 0 | 0 | 0 | 0 | 0 | 0 | 1 | –
2 | Nc1nc(/C(=C/CC(=O)O)C(=O)N[C@@H]2C(=O)N3C(C(=O)O)=CCS[C@H]23)cs1 [CEFTIBUTEN] | 0 | 0 | 0 | 0 | 0 | 0 | 0 | 0 | 0 | 1 | 0 | 0 | 0 | 1 | –
3 | CC1=C(/C=C/C(C)=C/C=C/C(C)=C/CO)C(C)(C)CCC1 [RETINOL] | – | – | – | – | – | – | – | – | – | – | – | – | – | – | HepSE_bilirubinemia ([1]; Liver): 0; HepSE_cholecystitis ([2]; Liver): 0; HepSE_cholelithiasis ([3]; Liver): 0; HepSE_cirrhosis ([4]; Liver): 0; HepSE_elevated liver function tests ([5]; Liver): 0; HepSE_hepatic failure ([6]; Liver): 0; HepSE_hepatic necrosis ([7]; Liver): 0; HepSE_hepatitis ([8]; Liver): 0; HepSE_hepatomegaly ([9]; Liver): 0; HepSE_jaundice ([10]; Liver): 0; HepSE_liver disease ([11]; Liver): 0; HepSE_liver fatty ([12]; Liver): 0; HepSE_liver function tests abnormal ([13]; Liver): 0; HepSE_Combined Scores ([14]; Liver): 0
4 | CCC[C@@]1(CCc2ccccc2)CC(O)=C([C@H](CC)c2cccc(NS(=O)(=O)c3ccc(C(F)(F)F)cn3)c2)C(=O)O1 | 1 | 0 | 0 | 0 | 0 | 1 | 0 | 1 | 0 | 1 | 0 | 1 | 1 | 6 | –
5 | COc1ccccc1OCCNCC(O)COc1cccc2[nH]c3ccccc3c12 (configuration not stated) [CARVEDILOL] | 1 | 0 | 0 | 0 | 0 | 0 | 0 | 0 | 0 | 0 | 0 | 0 | 0 | 1 | –
6 | CC#C[C@]1(O)CC[C@H]2[C@@H]3CCc4cc(O)ccc4[C@H]3CC[C@@]21C [ESTROGEN] | 0 | 0 | 0 | 0 | 0 | 0 | 0 | 0 | 0 | 1 | 0 | 0 | 0 | 1 | –
7 | CCN(CCO)CCCC(C)Nc1ccnc2cc(Cl)ccc12 (configuration not stated) [HYDROXYCHLOROQUINE] | 0 | 0 | 0 | 0 | 0 | 1 | 0 | 0 | 0 | 0 | 0 | 0 | 0 | 1 | –
8 | Clc1ccccc1CN1CCc2sccc2C1 [TICLOPIDINE] | – | – | – | – | – | – | – | – | – | – | – | – | – | – | HepSE_bilirubinemia ([1]; Liver): 0; HepSE_cholecystitis ([2]; Liver): 0; HepSE_cholelithiasis ([3]; Liver): 0; HepSE_cirrhosis ([4]; Liver): 0; HepSE_elevated liver function tests ([5]; Liver): 0; HepSE_hepatic failure ([6]; Liver): 1; HepSE_hepatic necrosis ([7]; Liver): 1; HepSE_hepatitis ([8]; Liver): 1; HepSE_hepatomegaly ([9]; Liver): 0; HepSE_jaundice ([10]; Liver): 1; HepSE_liver disease ([11]; Liver): 0; HepSE_liver fatty ([12]; Liver): 0; HepSE_liver function tests abnormal ([13]; Liver): 0; HepSE_Combined Scores ([14]; Liver): 4
9 | C=CC[N+]1([C@H]2C[C@H]3[C@@H]4CC[C@H]5C[C@H](O)[C@@H](N6CCOCC6)C[C@]5(C)[C@H]4CC[C@]3(C)[C@H]2OC(C)=O)CCCC1 [ROCURONIUM] | 0 | 0 | 0 | 0 | 0 | 0 | 0 | 0 | 0 | 0 | 0 | 0 | 0 | 0 | –
10 | C[C@@H](c1ncncc1F)[C@](O)(Cn1cncn1)c1ccc(F)cc1F [VORICONAZOLE] | 1 | 1 | 1 | 0 | 1 | 1 | 0 | 1 | 1 | 1 | 1 | 0 | 1 | 10 | –
11 | NC(=O)c1ncn([C@@H]2O[C@H](CO)[C@@H](O)[C@H]2O)n1 [RIBAVIRIN] | 1 | 0 | 0 | 0 | 0 | 1 | 0 | 0 | 1 | 0 | 0 | 1 | 0 | 4 | –
12 | OC(CCN1CCCCC1)(c1ccccc1)C1CCCCC1 (configuration not stated) [TRIHEXYPHENIDYL] | – | – | – | – | – | – | – | – | – | – | – | – | – | – | HepSE_bilirubinemia ([1]; Liver): 0; HepSE_cholecystitis ([2]; Liver): 0; HepSE_cholelithiasis ([3]; Liver): 0; HepSE_cirrhosis ([4]; Liver): 0; HepSE_elevated liver function tests ([5]; Liver): 0; HepSE_hepatic failure ([6]; Liver): 0; HepSE_hepatic necrosis ([7]; Liver): 0; HepSE_hepatitis ([8]; Liver): 0; HepSE_hepatomegaly ([9]; Liver): 0; HepSE_jaundice ([10]; Liver): 0; HepSE_liver disease ([11]; Liver): 0; HepSE_liver fatty ([12]; Liver): 0; HepSE_liver function tests abnormal ([13]; Liver): 0; HepSE_Combined Scores ([14]; Liver): 0
13 | C[C@H]1C[C@H]2[C@@H]3CCC4=CC(=O)C=C[C@]4(C)[C@@]3(Cl)[C@@H](O)C[C@]2(C)[C@@]1(O)C(=O)CO [BECLOMETHASONE] | 0 | 0 | 0 | 0 | 0 | 0 | 0 | 0 | 0 | 0 | 0 | 0 | 0 | 0 | –
